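Briefly, cells in 96-well plates were exposed to five compound concentrations for 48 h, and endpoints were estimated by linear interpolation. The concentration for 50% growth inhibition is given as GI50. TGI is the concentration that stops growth completely.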 Some results are limits rather than exact numbers.

Among the data in PubChem BioAssay (NCI) are TGI and GI50 values, retold here.

Some test systems named below: NCI-H460 lung; K-562 leukemia; SK-MEL-28 melanoma; NCI-H23 lung; NCI-H522 lung; RPMI-8226 leukemia; HCC-2998 colon; SW-620 colon; UO-31 renal; RXF 393 renal.
What all share (assay): NCI-60 cell line screen, 48 h

As for `Cc1cc(C)cc(Sc2c([N+](=O)[O-])ncn2C)c1`, the TGI in the assay on NCI-H460 lung was > 100 µM; in the assay on K-562 leukemia, > 100 µM; with SK-MEL-28 melanoma it was 30 µM; with NCI-H23 lung it was 33.3 µM; in the assay on NCI-H522 lung it was 20 µM; in the assay on RPMI-8226 leukemia, > 100 µM. The TGI is 92.7 µM with HCC-2998 colon, 41.4 µM in the assay on SW-620 colon and 85.9 µM with UO-31 renal.
Take `COc1cccc(C2NC(=S)NC(C)=C2C(=O)Nc2ccc(F)c(Cl)c2)c1` (stereo unspecified): the GI50 is 43.2 µM in the assay with NCI-H460 lung; 12.6 µM with K-562 leukemia; 18.5 µM in the assay on NCI-H23 lung; 20.8 µM with NCI-H522 lung; 11.6 µM with RPMI-8226 leukemia; > 50 µM in the assay on SW-620 colon. Moreover, the GI50 with UO-31 renal was 20.4 µM. For the same compound, the TGI in the assay on NCI-H460 lung is > 50 µM; with K-562 leukemia, 49.2 µM; in the assay with NCI-H23 lung it was 47.7 µM; in the assay with NCI-H522 lung, > 50 µM; in the assay on RPMI-8226 leukemia it was > 50 µM; in the assay on SW-620 colon, > 50 µM. In addition, the TGI in the assay with UO-31 renal was > 50 µM.
Take `O=C1C(Cl)=C(Nc2cccc(O)c2)C(=O)N1c1ccc(Cl)c(Cl)c1`: the GI50 in the assay on NCI-H460 lung is 19.1 µM; in the assay with K-562 leukemia, 25.5 µM; in the assay with SK-MEL-28 melanoma, 40.6 µM; in the assay with NCI-H23 lung, 15.4 µM; in the assay on NCI-H522 lung it was 30 µM; in the assay on RXF 393 renal it was 14.5 µM. Further, the GI50 in the assay with RPMI-8226 leukemia was 15.9 µM; in the assay with HCC-2998 colon, 15 µM; with UO-31 renal, 31.7 µM. The TGI is 50.5 µM in the assay on NCI-H460 lung; > 100 µM with K-562 leukemia; > 100 µM with SK-MEL-28 melanoma; 31.3 µM with NCI-H23 lung; > 100 µM in the assay on NCI-H522 lung; 42.2 µM in the assay with RXF 393 renal. The TGI is 57.7 µM with RPMI-8226 leukemia, 29.5 µM in the assay with HCC-2998 colon and > 100 µM in the assay on UO-31 renal.
For `O=c1[nH]c(SCc2c(Cl)c(Cl)c(Cl)c(Cl)c2Cl)nc(=S)[nH]1`, the TGI in the assay on NCI-H460 lung was > 100 µM; in the assay with K-562 leukemia it was 45.9 µM; in the assay with SK-MEL-28 melanoma, 98.6 µM; in the assay on NCI-H23 lung it was > 100 µM; with NCI-H522 lung, 34.4 µM; in the assay with RXF 393 renal it was 35.5 µM. Besides, the figures for the TGI in the assay with RPMI-8226 leukemia, with SW-620 colon and in the assay with UO-31 renal were 23.3 µM, > 100 µM and > 58.9 µM, respectively.
On to `COc1cccc(C2C3=C(COC3=O)N(CCO)c3cc4c(cc32)OCCO4)c1` (stereo unspecified), for which the GI50 is 0.148 µM in the assay on NCI-H460 lung; 0.0827 µM with K-562 leukemia; > 50 µM with SK-MEL-28 melanoma; 0.15 µM in the assay with NCI-H23 lung; 0.00807 µM in the assay with NCI-H522 lung; 0.0564 µM in the assay on RPMI-8226 leukemia. The GI50 with HCC-2998 colon is 0.0957 µM; in the assay with SW-620 colon it was 0.104 µM; with UO-31 renal, 0.268 µM. Moreover, the TGI in the assay with NCI-H460 lung is 1.19 µM; with K-562 leukemia, > 50 µM; in the assay with SK-MEL-28 melanoma it was > 50 µM; with NCI-H23 lung, > 50 µM; in the assay with NCI-H522 lung, 0.0208 µM; with HCC-2998 colon, 0.242 µM. In addition, the TGI with SW-620 colon was > 50 µM; in the assay on UO-31 renal it was > 15.6 µM.
For `CCC[CH2][Sn]([CH2]CCC)([O]C(=O)c1nccnc1N)[O]C(=O)c1nccnc1N`, the GI50 in the assay on NCI-H460 lung was 1.63 µM; with SK-MEL-28 melanoma, 0.769 µM; with NCI-H23 lung it was 0.573 µM; in the assay on NCI-H522 lung, 0.052 µM; with RXF 393 renal it was 0.187 µM; with HCC-2998 colon, 1.21 µM. The GI50 with SW-620 colon is 0.319 µM; in the assay on UO-31 renal it was 1.45 µM. Besides, the TGI is 3.33 µM in the assay on NCI-H460 lung; 2.04 µM with SK-MEL-28 melanoma; 1.91 µM in the assay on NCI-H23 lung; 0.18 µM in the assay on NCI-H522 lung; 1.31 µM with RXF 393 renal; 2.45 µM with HCC-2998 colon. In addition, the TGI with SW-620 colon was determined as 1.26 µM; in the assay with UO-31 renal it was 2.77 µM.
Take `O=C(O)C1CCCCN1C(=O)c1ccccc1` (stereo unspecified): the TGI with NCI-H460 lung, in the assay with K-562 leukemia, with SK-MEL-28 melanoma, in the assay with NCI-H23 lung, in the assay with RXF 393 renal and with RPMI-8226 leukemia was > 100 µM in each case. Besides, the TGI in the assay on HCC-2998 colon, in the assay on SW-620 colon and with UO-31 renal was > 100 µM in each case.
`COc1ccc(/C=C/c2cc(N3CCOCC3)c3cc(F)c(F)cc3n2)cc1OC`: the GI50 with NCI-H460 lung is 0.526 µM; with SK-MEL-28 melanoma, 1.44 µM; in the assay on NCI-H23 lung it was 1.12 µM; with NCI-H522 lung it was 0.454 µM; in the assay with RXF 393 renal, 1.36 µM; with RPMI-8226 leukemia, 1.5 µM. Moreover, the results for the GI50 with HCC-2998 colon, with SW-620 colon and with UO-31 renal were 0.876 µM, 0.667 µM and 0.347 µM, respectively. Further, the TGI was 3.72 µM with NCI-H460 lung; 11.6 µM with SK-MEL-28 melanoma; 6.11 µM in the assay with NCI-H23 lung; 2.72 µM in the assay on NCI-H522 lung; 10.8 µM in the assay with RXF 393 renal; 9 µM with RPMI-8226 leukemia. The TGI in the assay with HCC-2998 colon stood at 4.21 µM; with SW-620 colon, 11.6 µM; in the assay on UO-31 renal it was 10.3 µM.
Consider `CC(C)(C)[Si](C)(C)O/N=C\c1ccc(O[Si](C)(C)C(C)(C)C)cc1`, for which the TGI in the assay on NCI-H460 lung was > 100 µM; in the assay on K-562 leukemia, > 100 µM; in the assay on NCI-H23 lung it was > 100 µM; in the assay with RXF 393 renal it was 63.7 µM; in the assay on RPMI-8226 leukemia it was > 100 µM; in the assay on HCC-2998 colon it was > 100 µM. The TGI with SW-620 colon and in the assay with UO-31 renal was > 100 µM in each case.
As for `C=C1Oc2nc3ccccc3c(=O)n2C1(C)C`, the TGI in the assay on NCI-H460 lung, in the assay on K-562 leukemia, in the assay on SK-MEL-28 melanoma, with NCI-H23 lung, in the assay on NCI-H522 lung and in the assay on RPMI-8226 leukemia was > 100 µM each time. Moreover, the TGI in the assay with HCC-2998 colon, in the assay with SW-620 colon and in the assay with UO-31 renal was > 100 µM in each case.
For the compound `O=C(NNC(=O)c1ccncc1)c1ccncc1`, the TGI in the assay with NCI-H460 lung, with K-562 leukemia, in the assay with SK-MEL-28 melanoma, in the assay on NCI-H23 lung, in the assay with NCI-H522 lung and in the assay on RXF 393 renal was > 100 µM each time. Besides, the TGI in the assay on RPMI-8226 leukemia, in the assay with SW-620 colon and with UO-31 renal was > 100 µM in each case.
